Results as given in patent US20250295652A1, “Inhibitors of Molluscum Contagiosum Infection and Methods Using the Same” (priority 2021, published 2025).
Where two headings read alike, the source gives them in different places.

Legend:
mD4-VV surrogate virus = assay: microbe, parasite or virus in culture; type: cell-based, mD4/vaccinia hybrid virus; settings: Hybrid virus, BSC-1, read-out: mD4 EC50
in vitro = settings: African green monkey
D4 [1] = molecular target: T1, D4 (Vaccinia virus, UniProt P04303, Y163F); type: binding
MBP = molecular target: T2, MBP (Escherichia coli, UniProt P0AEX9); assay: DARTS, unrelated control protein MBP; type: binding; settings: crude cell lysates
T2 construct: made in house; host or cells: bacterial cells, crude lysate

[2] = system: human estrogen receptor beta (ERβ-N), MBP fusion; assay: DARTS, unrelated control protein ERβ-N; type: binding; settings: crude cell lysates
[3] = system: duplex or single-stranded DNA; assay: Isothermal titration calorimetry (ITC) DNA binding; settings: 40 μM compound, 25° C.
Experimental: Fish sperm DNA (USB Scientific, USA) was dissolved in water and fragmented by sonication in order to generate a random DNA mix. The fragmented DNA was then dialyzed into column buffer absence of glycerol. The 15-mer oligomer comprised of poly d(TC) (Integrated DNA Technologies, USA) was directly prepared in the same buffer without the dialysis step. DNA and compounds were prepared in the same dialysis buffer with added 2.5 mM DTT, 1% DMSO, and 0.005% Tween-20. DNA binding was then assessed by isothermal titration calorimetry (ITC) on a MicroCal iTC200 microcalorimeter (Malvern Instruments, United Kingdom) by titrating 3 μL/injection of 1.2 mg/mL of random DNA (with unknown molar concentration) or 5.3 mg/L of single-stranded DNA into the sample consisting of 40 μM of compound. Experiments were performed at 25° C. with 800 rpm stirring and 3-min spacing in order to allow equilibration. Ethidium bromide (Sigma-Aldrich, USA) was freshly prepared in water. Since the molar concentrations of the DNA ligands were undefined, only raw heat values are depicted.

VV = assay: microbe, parasite or virus in culture; type: cell-based, vaccinia virus; settings: Orthopoxvirus vaccinia, BSC-1, read-out: VV EC50
[4] = molecular target: T3, E9/A20/D4 proteins (vaccinia virus vD4) (Vaccinia virus, UniProt P04303, Y163F); type: biochemical
T3 construct: made in house; host or cells: TNT reticulocyte lysate (in vitro translation)

[5] = molecular target: E9/A20/D4 proteins (molluscum mD4) (Molluscum contagiosum virus, UniProt Q98260); assay: biochemical
[6] = molecular target: UL30 (DNA polymerase) and UL42 (processivity factor) (Human herpesvirus 1, UniProt P04293+P10226); type: biochemical, HSV-1
HSV-1 = type: cell-based; settings: Vero cells
D4 [7] = molecular target: T1, D4; type: binding; set-up: made in house; host or cells: bacterial cells (IPTG induction); purified for SPR, crude lysate for DARTS
[8] = Irritancy on human cadaver skin; settings: gel formulated 99
Experimental: Briefly, gel was applied to shaved skin areas, covered for 24 hours and irritancy was measured daily for 3 days after uncovering using the Draize scoring system.

[9] = Solubility in receptor medium; settings: 1×PBS/4% BSA receptor medium, typical IVPT study
From the text: For this study, human torso skin was used rather than a membrane. Initially, methods development was done to identify the receiving medium in the reservoir of the Franz cell apparatus which provided the greatest compound solubility so that percentages of full penetration would not be underestimated due to poor solubility.

Sequence of E9/A20/D4 proteins (molluscum mD4) (Q98260 1-226): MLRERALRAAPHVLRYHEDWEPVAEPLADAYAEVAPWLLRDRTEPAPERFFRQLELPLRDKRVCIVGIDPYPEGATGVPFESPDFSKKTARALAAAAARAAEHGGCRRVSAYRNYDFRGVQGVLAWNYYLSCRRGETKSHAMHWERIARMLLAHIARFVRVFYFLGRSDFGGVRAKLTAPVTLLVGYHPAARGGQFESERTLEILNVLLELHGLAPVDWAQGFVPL
Sequence of UL30 (DNA polymerase) and UL42 (processivity factor) (P10226 whole entry): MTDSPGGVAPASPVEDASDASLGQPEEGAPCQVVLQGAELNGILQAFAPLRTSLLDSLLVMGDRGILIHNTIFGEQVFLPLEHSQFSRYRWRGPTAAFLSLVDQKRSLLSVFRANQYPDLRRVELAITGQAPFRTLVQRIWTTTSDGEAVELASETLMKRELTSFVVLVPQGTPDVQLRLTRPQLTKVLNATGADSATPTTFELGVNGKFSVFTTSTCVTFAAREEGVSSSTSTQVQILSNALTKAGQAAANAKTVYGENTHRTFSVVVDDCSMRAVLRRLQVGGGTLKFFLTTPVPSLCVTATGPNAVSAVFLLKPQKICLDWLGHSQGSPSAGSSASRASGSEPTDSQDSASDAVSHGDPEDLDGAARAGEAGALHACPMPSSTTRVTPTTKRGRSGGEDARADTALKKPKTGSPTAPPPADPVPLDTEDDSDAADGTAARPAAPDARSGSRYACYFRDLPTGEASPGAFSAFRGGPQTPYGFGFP
Sequence of UL30 (DNA polymerase) and UL42 (processivity factor) (P04293 whole entry): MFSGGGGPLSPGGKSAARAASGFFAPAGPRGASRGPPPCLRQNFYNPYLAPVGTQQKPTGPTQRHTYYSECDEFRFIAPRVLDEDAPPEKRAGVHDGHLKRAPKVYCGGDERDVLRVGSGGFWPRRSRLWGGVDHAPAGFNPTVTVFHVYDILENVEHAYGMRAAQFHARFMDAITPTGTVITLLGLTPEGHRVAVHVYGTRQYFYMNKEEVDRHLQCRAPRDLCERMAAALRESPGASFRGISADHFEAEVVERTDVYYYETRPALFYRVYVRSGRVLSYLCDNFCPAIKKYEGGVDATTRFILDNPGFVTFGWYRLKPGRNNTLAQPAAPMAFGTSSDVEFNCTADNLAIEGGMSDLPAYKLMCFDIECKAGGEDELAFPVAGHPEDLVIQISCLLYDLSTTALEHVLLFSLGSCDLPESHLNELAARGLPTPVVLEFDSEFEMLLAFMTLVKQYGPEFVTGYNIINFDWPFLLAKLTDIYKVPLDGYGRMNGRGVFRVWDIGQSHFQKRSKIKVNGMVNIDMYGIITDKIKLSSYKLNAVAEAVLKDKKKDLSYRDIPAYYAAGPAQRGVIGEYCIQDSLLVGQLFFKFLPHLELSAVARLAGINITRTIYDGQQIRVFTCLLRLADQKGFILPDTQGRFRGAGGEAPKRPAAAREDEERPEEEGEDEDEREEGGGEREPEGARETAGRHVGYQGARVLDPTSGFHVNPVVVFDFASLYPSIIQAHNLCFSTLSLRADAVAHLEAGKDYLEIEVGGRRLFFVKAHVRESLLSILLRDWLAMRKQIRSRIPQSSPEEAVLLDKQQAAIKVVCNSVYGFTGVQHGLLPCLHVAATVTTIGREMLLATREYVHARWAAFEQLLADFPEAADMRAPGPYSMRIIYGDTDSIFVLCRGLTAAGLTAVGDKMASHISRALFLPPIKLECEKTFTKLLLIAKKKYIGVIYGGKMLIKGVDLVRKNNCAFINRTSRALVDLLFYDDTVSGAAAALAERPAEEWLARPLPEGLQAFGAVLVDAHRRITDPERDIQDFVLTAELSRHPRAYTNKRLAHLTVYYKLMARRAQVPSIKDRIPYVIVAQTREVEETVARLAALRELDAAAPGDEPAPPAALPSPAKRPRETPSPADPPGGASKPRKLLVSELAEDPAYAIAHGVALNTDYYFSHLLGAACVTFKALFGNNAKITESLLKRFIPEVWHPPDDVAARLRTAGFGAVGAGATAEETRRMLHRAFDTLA

Row | Structure (SMILES) | EC50 (mD4-VV surrogate virus) [µM] | CC50 (in vitro) [µM] | ΔTm (D4 [1]; 25 µM) | ΔTm (D4 [1]; 50 µM) | effect on MBP protein levels after proteolysis (in words) (MBP) | effect on ERβ-N protein levels after proteolysis (in words) [2] | DNA binding heat traces (in words) [3] | EC50 (VV) [µM] | inhibition of VACV DNA synthesis compared with mD4 reaction (in words) [4] | IC50 [5] [µM] | inhibition of DNA synthesis using HSV-1 proteins (in words) [6] | antiviral activity against HSV-1 infection (in words) (HSV-1) | effect on D4 protein levels after Pronase proteolysis (in words) (D4 [7]) | irritancy score [8] | solubility sufficient to detect % of the applied amount [9]
1 | CCC(C(=O)Nc1sc(C(=O)O)c(C)c1C(=O)OC)c1ccc(C(F)(F)F)cc1 (stereo not shown) [Compound 199, 4-(methoxycarbonyl)-5-(2-(4-(trifluoromethyl)phenyl)butanamido)-3-methylthiophene-2-carboxylic acid] | 17.9 | > 100 |  |  |  |  |  |  |  |  |  |  |  |  | 
2 | CCC(C(=O)Nc1sc(C(N)=O)c(C)c1C(=O)OC)c1ccccc1 (stereo not shown) [Compound 1, methyl 5-carbamoyl-4-methyl-2-(2-phenylbutanamido)thiophene-3-carboxylate] | 22.9 |  | −0.86 | −1.55 | inability | inability | no appreciable total heats | 15.1 | Nearly identical inhibition | 16.3 | no inhibition | lack of antiviral activity | increase in D4 protein levels |  | 
3 | CCC(C(=O)Nc1sc(C(N)=O)c(C)c1C(=O)OC)c1ccc(F)cc1 (stereo not shown) [Compound 99, 5-Carbamoyl-2-[2-(4-fluoro-phenyl)-butyrylamino]-4-methyl-thiophene-3-carboxylic acid methyl ester] | 8.8 |  |  |  |  |  |  | 9 |  | 8.9 |  |  |  | non-irritant | up to 143%
